According to paper PMC4522690 (Journal of medicinal chemistry, 2015):
pIC50: −log10 of the molar value.

Key:
PR20 [1] = conditions: compared with darunavir or wild-type PR; cited from earlier work
TFR-PR20 [2] = conditions: cited from earlier work
TFR-PR [3] = target: T1, TFR-PR (Human immunodeficiency virus type 1, UniProt P03366); assay: Inhibition of N-terminal autoprocessing of wild-type precursor in E. coli; format: cell-based, HIV-1
PR20 [4] = assay: Kinetic assay of PR20 proteolytic activity with fluorogenic substrate; format: biochemical, HIV-1; conditions: Ki PR20 / Ki wild-type PR
TFR-PR20 [5] = assay: Inhibition of N-terminal autoprocessing of mutant precursor in E. coli; format: cell-based, HIV-1; conditions: tests up to 100 μM concentration
[6] = blood–brain barrier penetration; cited from earlier work
[7] = tested on: highly darunavir resistant strain of HIV-1; conditions: strain selected in the laboratory; cited from earlier work
PR20 [8] = target: PR20 (Human immunodeficiency virus type 1, UniProt P03366, D530N/I547V/I584V, form not given); assay: Kinetic assay of PR20 proteolytic activity with fluorogenic substrate; format: biochemical, HIV-1; conditions: versus darunavir KL 41 nM
TFR-PR [9] = target: T1, TFR-PR; conditions: cited from earlier work

SMILES | inhibition of autoprocessing of PR20-containing precursors (in words) (TFR-PR20 [2]) | pIC50 (TFR-PR [3]) | inhibition of autoprocessing of TFR-PR20 precursor (TFR-PR20 [5]) | inhibition of autoprocessing of TFR-PR relative to other clinical protease inhibitors (in words) (TFR-PR [9]) | other results
COc1ccc(S(=O)(=O)N(C[C@H]2CCC(=O)N2)C[C@@H](O)[C@H](Cc2ccccc2)NC(=O)O[C@@H]2C[C@@H]3CCO[C@@H]3C2)cc1 [GRL-02031A] | neither GRL-02031A nor GRL-0519A inhibits the autoprocessing | – | – | – | binding affinity for PR20 (in words) (PR20 [1]): weaker affinity for PR20
COc1ccc(S(=O)(=O)N(CC(C)C)C[C@@H](O)[C@H](Cc2ccccc2)NC(=O)O[C@H]2CO[C@H]3OC[C@H](OC)[C@H]32)cc1 [GRL-4410A] | – | 5.70 to 6.00 | no significant improvement was observed in the inhibition | – | fold weaker inhibition (Ki) of PR20 than wild-type PR (PR20 [4]): 1000 fold
CC(C)CN(C[C@@H](O)[C@H](Cc1ccccc1)NC(=O)O[C@H]1CO[C@H]2OCC(F)(F)[C@H]21)S(=O)(=O)c1ccc(N)cc1 [GRL-5010A] | – | 5.70 to 6.00 | no significant improvement was observed in the inhibition | – | fold higher apparent permeability coefficient (Papp) than darunavir [6]: 6.5 fold; antiviral activity against highly darunavir resistant HIV-1 (in words) [7]: moderate antiviral activity; fold lower Ki for PR20 relative to darunavir binding affinity (KL) (PR20 [8]): about 2 fold
COC(=O)N[C@H](C(=O)N[C@@H](Cc1ccccc1)[C@@H](O)CN(Cc1ccc(-c2ccccn2)cc1)NC(=O)[C@@H](NC(=O)OC)C(C)(C)C)C(C)(C)C [atazanavir] | – | – | – | inhibited most effectively | –
CC(C)CN(C[C@@H](O)[C@H](Cc1ccccc1)NC(=O)O[C@H]1CO[C@H]2OCC[C@H]21)S(=O)(=O)c1ccc(N)cc1 [darunavir] | like darunavir, neither GRL-02031A nor GRL-0519A inhibits the autoprocessing | – | – | inhibited most effectively | –
CC(C)(C)NC(=O)[C@@H]1C[C@@H]2CCCC[C@@H]2CN1C[C@@H](O)[C@H](Cc1ccccc1)NC(=O)[C@H](CC(N)=O)NC(=O)c1ccc2ccccc2n1 [saquinavir] | – | – | – | inhibited most effectively | –
